Experimental data taken from patent publication US20250361248A1, “PROTAC COMPOUND WITH CYCLOPHILIN A DEGRADATION ACTIVITY, PREPARATION METHOD THEREFOR, AND USE THEREOF” (priority 2022, published 2025).

Key:
[1] = system: IBV-/Guangxi-Jiangzhou/1352/2018; test: IBV-induced pneumonia mouse model: lung index, lung pathology and pathological scores; design: species or system C57BL/6 mice; details: in vivo
CypA [2] = molecular target: CypA (Mus musculus, UniProt P17742); assay type: in vivo, C57BL/6 mice; details: 10 mg/kg of body weight/day from 24 h after IBV infection, 7 days after infection
Chain of CypA (Mus musculus, UniProt P17742) (P17742 whole entry): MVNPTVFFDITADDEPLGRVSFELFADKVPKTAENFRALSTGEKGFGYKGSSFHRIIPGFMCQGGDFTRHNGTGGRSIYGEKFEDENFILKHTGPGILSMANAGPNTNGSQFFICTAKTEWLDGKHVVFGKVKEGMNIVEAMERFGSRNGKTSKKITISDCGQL

rheumatoid arthritis = test: Rat rheumatoid arthritis model (Freund complete adjuvant); assay type: in vivo, Lewise rats; details: 10 mg/kg tail vein three times/week
Procedure: The BCG vaccine was inactivated in a water bath at 80° C. for 1 h, ground thoroughly with incomplete Freund adjuvant, and mixed well to prepare 15 mg/mL Freund complete adjuvant (FCA). Lewise rats were divided into 4 groups: blank group (PBS), untreated group (UT), treatment group 1 (compound), and treatment group 2 (MTX (methotrexate)), with 5 rats in each group and a body weight of […]. Except for the PBS group, rats were intradermally injected with 0.1 mL of FCA in the right hind paw. On day 14 after injection, rats in treatment group 1 (compound) were injected with the compound (10 mg/kg of body weight, dissolved in 100 μL of PBS) through the tail vein three times/week: rats in treatment group 2 (MTX (methotrexate)) were intraperitoneally injected with methotrexate (1.2 mg/kg of body weight) three times/week.
The circumference of the metatarsophalangeal joint was measured. The circumference of the ankle joint of the left hind paw (on the secondary lesion side) of all rats was measured once before modeling, before administration, and 3 weeks after administration, respectively, and the percentage of joint swelling was calculated.
The joint index was determined by joint swelling score before administration (Day 0) and 3 weeks after administration. Scoring was carried out based on the redness and swelling degree of the ankle and toe joints of the front and rear limbs of rats and the affected joint index, as follows: 0 for normal; 1 for the redness and swelling of one joint; 2 for the redness and swelling of two or more joints; 3 for severe redness and swelling of the paw below the ankle joint; 4 for the redness and swelling of the entire paw including the ankle joint and inability to bear weight. The limbs were scored separately; and the cumulative sum of the scores was the joint index.
(1) On the day 21 of administration, rats were euthanized after blood collection. […]
(2) Joint synovial proliferation and the degree of sub-synovial inflammation were observed under a light microscope, and synovial cell proliferation was scored.

CypA [3] = molecular target: T1, CypA (Homo sapiens, UniProt P62937); test: CypA degradation in A549 cells by Western Blot; assay type: cell-based; details: A549 cell line, 12 hours
T1 construct: A549 cells in the logarithmic phase were collected; endogenous in cells; host or cells: A549
T1 sequence (P62937 whole entry): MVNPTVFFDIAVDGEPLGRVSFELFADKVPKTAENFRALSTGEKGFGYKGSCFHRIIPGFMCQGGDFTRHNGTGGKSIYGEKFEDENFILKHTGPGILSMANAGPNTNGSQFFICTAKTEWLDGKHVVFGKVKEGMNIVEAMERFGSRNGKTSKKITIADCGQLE
Procedure: (§1) (1) A549 cells in the logarithmic phase were collected, the concentration of the cell suspension was adjusted, and 100 uL was added per well. The cells to be tested were plated to a density of 10^3-10^4 cells/well and incubated at 37° C. under 5% CO2 until the bottom of the wells was covered by a single layer of cells.
(2) Different concentrations of the compound of Formula I were added: 0, 10, 10^2, 10^3, 10^4, and 10^5 nM/well, with 3 replicate wells set, and incubated at 37° C. under 5% CO2 for 12 hours.
(1) The treated cells were scraped off from the culture medium, suspended thoroughly, and then collected by centrifugation at 300 g for 5 minutes. After washing with PBS once, the PBS was discarded. […]
(3) The specific steps for Western Blot (WB) detection were as follows: • 1) An appropriate concentration of SDS-PAGE gel was prepared: the concentration of a separating gel of 10% and the concentration of a stacking gel of 5%. • 2) Sample preparation: protein samples were prepared according to experimental requirements, centrifuged, mixed well, and loaded into the loading wells of SDS-PAGE gel. The loading volume was adjusted appropriately according to the protein quantification results. • 3) Electrophoresis: the power was turned on, and the protein samples were run at 80 volts in the stacking gel. […]

A549 cells [4] = test: Effect on A549 cell activity by CCK-8 method; assay type: cell-based; details: 0 to 10^5 nM, 12 hours
Procedure: as §1
(2) Different concentrations of the compound of Formula (I) were added: 0, 10, 10^2, 10^3, 10^4, and 10^5 nM/well, with 3 replicate wells set, and incubated at 37° C. under 5% CO2 for 12 hours.
• (1) 10 μL CCK8 reagent was added to the above cells in each well and reacted for 2 h. • (2) The incubation was terminated, and the culture medium in the wells was carefully aspirated. • (3) The absorbance of each well was measured using a microplate reader with a wavelength of 450 nm. • (4) The absorbance ratio between the experimental group and the control group was calculated as follows: Cell viability=(Absorbance of the experimental group−Blank control)÷(Absorbance of the control group−Blank control)×100%.

[5] = system: IL-1β, IL-6, TNF-α, and IFN-γ; design: species or system C57BL/6 mice; details: mouse, in vivo, 10 mg/kg/day
A549 cells [6] = test: Migration and infiltration of lung cancer cells, Transwell chambers; assay type: cell-based
Procedure: as §1, with “10^3 to 10^4” for “10^3-10^4”
(2) Different concentrations of the compound represented by Formula I were added: 0, 10, 10^2, 10^3, 10^4, and 10^5 nM/well, with 3 replicate wells set, and incubated at 37° C. under 5% CO2 for 12 hours.
The upper chamber of a 24-well cell culture insert ([…] pore size) was coated (no migration) or (invasive) with a matrix (1 mg/mL) and dried at 37° C. for 30 min.
(3) A549/WT and A549/CypA-cells were trypsinized, washed, and suspended in serum-free DMEM after treatment with 20 ng/ml TGF-β for 48 h.
(1) DMEM containing 10% fetal bovine serum was added to the lower chamber per approximately 5×10^4 cells inserted in the upper chamber.
(2) After incubation for 6 h (migration) or 24 h (invasion), non-migrating or […] cells residing on the upper part of the insert membrane were removed with a cotton swab.
(3) The cells that migrated to the underside of the membrane were fixed and stained with 2% crystal violet in ethanol.
(4) The stained cells were observed and counted under a Japan Olympus CKX41 microscope.

## Cc1ncsc1-c1ccc(CNC(=O)[C@@H]2C[C@@H](O[Si](C)(C)C(C)(C)C)CN2C(=O)[C@@H](NC(=O)COCCCCOCCCCOc2cccc(O)c2C(=O)NC(=O)NC2CCCCC2)C(C)(C)C)cc1 [Formula I]
[1]
  lung injury (lung index, pathology, pathological scores): significantly alleviate lung injury
CypA [2]
  expression of CypA in mouse lung tissue: significantly reduce
Rheumatoid arthritis; 3 weeks after administration
  joint index of the ankle joint: reduce the joint index
  joint swelling: significantly relieve joint swelling
Rheumatoid arthritis; day 21 of administration
  inflammation of the ankle joint (ankle pathological scores, HE): alleviate the inflammation
CypA [3]; WB grayscale analysis, read-out: half-degradation concentration on CypA
  DC50: < 0.1 µM
CypA [3]; WB, 0 to 10^5 nM
  degradation effect on CypA protein: could be clearly observed
A549 cells [4]
  cell viability: above 80%
[5]
  expression of IFN-γ in the lung tissue: significantly reduce
  expression of IL-1β in the lung tissue: significantly reduce
  expression of IL-6 in the lung tissue: significantly reduce
  expression of TNF-α in the lung tissue: significantly reduce
A549 cells [6]; A549, Transwell with matrix, 24 h
  infiltration of lung cancer cells: significantly reduce
A549 cells [6]; A549, Transwell, 6 h
  migration of lung cancer cells: significantly reduce
